Measurements taken from ChEMBL document CHEMBL3745675, “Design and optimization of selective azaindole amide M1 positive allosteric modulators” (Bioorg Med Chem Lett, 2016).

What was measured:
Plasma [1] = assay: Fraction unbound in C57BL/6j mouse plasma at 10 mg/kg, sc after 1 hr; assay type: ADME, organism-based; conditions: in vivo
[2] = Permeability in RRCK cells; assay type: ADME, cell-based, Canis lupus familiaris, MDCKII-LE; conditions: dog, MDCK; read-out: permeability
[3] = Ratio of unbound AUC in brain to plasma in C57BL/6j mouse; assay type: ADME, organism-based; conditions: read-out: Ratio AUC
[4] = Ratio of unbound AUC in brain to plasma in Wistar Hann rat; assay type: ADME, organism-based; conditions: read-out: Ratio AUC
[5] = Oral bioavailability in Wistar Hann rat; assay type: ADME, organism-based; conditions: in vivo
Plasma [6] = assay: Fraction unbound in C57BL/6j mouse plasma; assay type: ADME, cell-free
Plasma [7] = assay: Fraction unbound in Wistar Hann rat plasma; assay type: ADME, cell-free
Plasma [8] = assay: Fraction unbound in C57BL/6j mouse plasma at […], sc after 1 hr; assay type: ADME, organism-based; conditions: in vivo
[9] = Ratio drug level in brain to plasma in C57BL/6j mouse at […], sc after 1 hr; assay type: ADME, organism-based; conditions: read-out: BPR
[10] = Ratio of unbound AUC in brain to plasma in C57BL/6j mouse at […], sc after 1 hr; assay type: ADME, organism-based; conditions: read-out: Ratio AUC
[11] = Ratio drug level in brain to plasma in C57BL/6j mouse at 10 mg/kg, sc after 1 hr; assay type: ADME, organism-based; conditions: read-out: BPR
[12] = Ratio of unbound AUC in brain to plasma in C57BL/6j mouse at 10 mg/kg, sc after 1 hr; assay type: ADME, organism-based; conditions: read-out: Ratio AUC
Plasma [13] = assay: Fraction unbound in C57BL/6j mouse plasma at 10 mg/kg, sc after 0.5 hrs; assay type: ADME, organism-based; conditions: in vivo
[14] = Ratio drug level in brain to plasma in C57BL/6j mouse at 10 mg/kg, sc after 0.5 hrs; assay type: ADME, organism-based; conditions: read-out: BPR
[15] = Ratio of unbound AUC in brain to plasma in C57BL/6j mouse at 10 mg/kg, sc after 0.5 hrs; assay type: ADME, organism-based; conditions: read-out: Ratio AUC
Plasma [16] = assay: Fraction unbound in C57BL/6j mouse plasma at 10 mg/kg, sc after 2 hrs; assay type: ADME, organism-based; conditions: in vivo
[17] = Ratio drug level in brain to plasma in C57BL/6j mouse at 10 mg/kg, sc after 2 hrs; assay type: ADME, organism-based; conditions: read-out: BPR
[18] = Ratio of unbound AUC in brain to plasma in C57BL/6j mouse at 10 mg/kg, sc after 2 hrs; assay type: ADME, organism-based; conditions: read-out: Ratio AUC
Plasma [19] = assay: Fraction unbound in C57BL/6j mouse plasma at 10 mg/kg, sc after 4 hrs; assay type: ADME, organism-based; conditions: in vivo
[20] = Ratio drug level in brain to plasma in C57BL/6j mouse at 10 mg/kg, sc after 4 hrs; assay type: ADME, organism-based; conditions: read-out: BPR
[21] = Ratio of unbound AUC in brain to plasma in C57BL/6j mouse at 10 mg/kg, sc after 4 hrs; assay type: ADME, organism-based; conditions: read-out: Ratio AUC
[22] = AUC (0 to 24 hrs) in Wistar Hann rat at 0.5 mg/kg, iv; assay type: ADME, organism-based; design: dose 0.5 mg/kg, time < 24 hr, route intravenous; conditions: in vivo
[23] = Intial plasma concentration in Wistar Hann rat at 0.5 mg/kg, iv; assay type: ADME, organism-based
[24] = Volume of distribution at steady state in Wistar Hann rat at 0.5 mg/kg, iv; assay type: ADME, organism-based; conditions: in vivo, read-out: Vdss
[25] = Cmax in Wistar Hann rat at 2 mg/kg, po; assay type: ADME, organism-based; design: dose 2 mg/kg, route oral; conditions: in vivo
[26] = Tmax in Wistar Hann rat at 2 mg/kg, po; assay type: ADME, organism-based; conditions: in vivo
[27] = AUC in Wistar Hann rat at 2 mg/kg, po; assay type: ADME, organism-based; conditions: in vivo
[28] = Oral bioavailability in Wistar Hann rat at 2 mg/kg; assay type: ADME, organism-based; conditions: in vivo
[29] = Drug concentration in Wistar Hann rat brain at 5 mg/kg, sc after 1 hr; assay type: ADME, organism-based; conditions: read-out: Drug uptake
[30] = Drug concentration in Wistar Hann rat brain at 5 mg/kg, sc after 2 hrs; assay type: ADME, organism-based; conditions: read-out: Drug uptake
[31] = Drug concentration in Wistar Hann rat brain at 5 mg/kg, sc after 4 hrs; assay type: ADME, organism-based; conditions: read-out: Drug uptake
[32] = Drug concentration in Wistar Hann rat brain at 5 mg/kg, sc after 6 hrs; assay type: ADME, organism-based; conditions: read-out: Drug uptake
[33] = Drug concentration in Wistar Hann rat plasma at 5 mg/kg, sc after 1 hr; assay type: ADME, organism-based
[34] = Drug concentration in Wistar Hann rat plasma at 5 mg/kg, sc after 2 hrs; assay type: ADME, organism-based
[35] = Drug concentration in Wistar Hann rat plasma at 5 mg/kg, sc after 4 hrs; assay type: ADME, organism-based
[36] = Drug concentration in Wistar Hann rat plasma at 5 mg/kg, sc after 6 hrs; assay type: ADME, organism-based

## Cn1ccc(-c2ccc(Cn3cc(C(=O)N[C@H]4CCOC[C@@H]4O)c4ncccc43)cc2)n1
Plasma [1]
  Cp(f): 560 nM
[2]
  Papp: 31.5 ×10⁻⁶ cm/s
[3]
  Kp uu: 0.2
[4]
  Kp uu: 0.15
[5]
  bioavailability: 69%
Plasma [6]
  Cp(f): 0.027 nM
Plasma [7]
  Cp(f): 0.092 nM
Plasma [8]
  Cp(f): 302.2 nM
[9]
  Kp at 1 h: 0.04
[10]
  Kp uu at 1 h: 0.1
[11]
  Kp at 1 h: 0.07
[12]
  Kp uu at 1 h: 0.18
Plasma [13]
  Cp(f): 295 nM
[14]
  Kp at 0.5 h: 0.14
[15]
  Kp uu at 0.5 h: 0.34
Plasma [16]
  Cp(f): 379 nM
[17]
  Kp at 2 h: 0.06
[18]
  Kp uu at 2 h: 0.16
Plasma [19]
  Cp(f): 218 nM
[20]
  Kp at 4 h: 0.1
[21]
  Kp uu at 4 h: 0.24
[22]
  AUC(0-t) at 24 h: 1660 ng·h/mL
[23]
  C0: 535 ng/mL
[24]
  Vd: 1.49 L/kg
[25]
  Cmax: 600 ng/mL
[26]
  Tmax: 1.5 h
[27]
  AUC: 4510 ng·h/mL
[28]
  bioavailability: 67.9%
[29]
  concentration at 1 h: 1050 nM
[30]
  concentration at 2 h: 944 nM
[31]
  concentration at 4 h: 681 nM
[32]
  concentration at 6 h: 409 nM
[33]
  concentration at 1 h: 5.03 µM
[34]
  concentration at 2 h: 5.46 µM
[35]
  concentration at 4 h: 3.19 µM
[36]
  concentration at 6 h: 2150 nM
